Where two headings read alike, the source gives them in different places.
What was measured:
[1] = tested on: P. aeruginosa WACC91 planktonic cells; test: Checkerboard, tobramycin with other chelators; assay type: cell-based, Pseudomonas aeruginosa; conditions: for effect on the MIC of tobramycin: concentration-dependent, FIGS. 13 and 14
Experimental: (§1) Growth method 2: Overnight cultures of the relevant strain of P. aeruginosa were grown in M63 medium supplemented with glucose (0.5% w/v), casamino acids (0.2% w/v) and MgSO4 (1 mM) at 35° C. with shaking. 96-well microplates containing M63 with serial dilutions of antibiotics and adjuvants as indicated were inoculated to OD600 nm 0.01 in a final volume of 200 μl. Plates were incubated at 35° C. overnight without shaking.
Cells were grown according to method 2 and challenged with different concentrations of tobramycin.

[2] = tested on: P. aeruginosa planktonic cells and biofilms; test: Microplate test of antibiotics of different classes with buffered CaEDTA; assay type: cell-based, Pseudomonas aeruginosa; conditions: growth method 2; FIGS. 7-12
Experimental: as §1
(§2) Planktonic growth was monitored by OD reading or plate counting. Biofilms were quantified by staining with 40 μl of crystal violet stain (1% w/v in water) for 10 min at room temperature, washing twice with 250 μl of water, dissolving the stain in 250 μl of 50% ethanol and reading optical density at 595 nm.
Cells were grown according to method 2 and challenged with buffered CaEDTA and a series of clinically relevant antibiotics of different classes with different modes of action.

[3] = 300 mg/day for two weeks (75 mg QID); FIG. 26
Experimental: Subjects were then discharged and treatment was continued twice a day for four weeks. Patients were monitored for a further four weeks, bringing the total study time to 10 weeks. At each study visit, lung function was measured by spirometry. Data was recorded as the best of three attempts, and results were expressed as % predicted.

[4] = tested on: P. aeruginosa clinical strain biofilms; test: Biofilms in hanging drops of CF mucus treated with nebulised tobramycin and/or aerosolised EDTA particles; assay type: cell-based, Pseudomonas aeruginosa; conditions: for biofilm viability (BacLight LIVE/DEAD, confocal microscopy): 5 min treatment, nebulised tobramycin 20 mg/ml and/or aerosolised EDTA particles 10 mg/ml, 16 hours incubation, FIG. 24A
Experimental: Biofilms were grown in a realistic in vitro model using suspended drops of cystic fibrosis mucus harvested from epithelial cell lines (Haley, C. L., Colmer-Hamood, J. A., and Hamood, A. N. (2012). Characterization of biofilm-like structures formed by Pseudomonas aeruginosa in a synthetic mucus medium. BMC Microbiol 12, 181.).
Drops of mucus (5 μl) were suspended from an inverted IBIDI cover slip and inoculated with 10^3 cfu, then incubated in a humidified environment at 35° C. for 72 hours to allow biofilm development. […] Controls were treated with a 50/50 solution of nebulised 0.9% saline/water. Following treatment, the drops were incubated for 16 hours, then stained with BacLight LIVE/DEAD (1 μl), and fixed in paraformaldehyde vapour for 30 min. Biofilms were visualised using confocal microscopy.

[5] = tested on: P. aeruginosa WACC91 biofilms; test: Checkerboard, biofilm growth (crystal violet staining), tobramycin with CaEDTA or buffered CaEDTA; assay type: cell-based, Pseudomonas aeruginosa
Experimental: (§3) Growth method 1: Cells were grown in M9 medium supplemented with arginine and MgSO4, in polystyrene 96-well plates (Nunc) by seeding each well with […] of an overnight culture of P. aeruginosa strain WACC 91 and incubating at 37° C. for 24 hours.
(§4) Anaerobic cultures were incubated in a closed chamber with anaerobic sachets to remove oxygen.
as §2
(§5) Cells of P. aeruginosa WACC91 were grown according to method 1 and tested in a checkerboard assay against tobramycin and CaEDTA in varying concentrations.

[6] = single dose of 75 mg CaEDTA; after 30 minutes; FIG. 28
Experimental: Vials were then centrifuged at 100 g for 5 min to sediment precipitated proteins and 754 μL of the methanol extract taken for derivatisation. […] Derivatised extract (1 μl) was injected into a Waters microflow HPLC equipped with a triple quad mass […] detector.

P. aeruginosa WACC91 = conditions: for interaction with tobramycin, planktonic growth (OD600 nm): checkerboard
Experimental: as §3, §4, §2, §5

P. aeruginosa biofilms = tested on: P. aeruginosa biofilms
Experimental: Biofilm disruption or killing was monitored by growing cells as described and removing planktonic cells by pipetting. The attached biofilm was washed carefully with sterile PBS three times, and fresh medium containing the treatment (tobramycin alone or together with CaNa2EDTA in solution, tris-buffered solution, or as dry powder particles) was added. Plates were incubated for a further 24 hours and metabolic activity was measured. Biofilms were washed as described above, then fresh medium containing 0.02% w/v resazurin was added. Plates were shaken briefly to mix, then incubated at 37° C. for 2 hours. Metabolic activity, as reflected by the conversion of resazurin to resafurin, was assessed by measuring the increase in fluorescence at an excitation wavelength of 530 nm with detection at 590 nm.

[7] = tested on: Klebsiella pneumoniae planktonic cells and biofilms; test: Checkerboard, colistin with buffered CaEDTA; assay type: cell-based
Experimental: (§6) Checkerboard assays of other species were carried out using growth method 1, apart from the following variations. Burkholderia cepacia was incubated at 30° C., and other bacteria were incubated at 37° C. Streptococcus pyogenes and Streptococcus pneumoniae were grown in Todd Hewitt Broth, and Staphylococcus aureus was grown in Veal Infusion Broth.

P. aeruginosa = conditions: ten CF children, nebulised sodium EDTA and oral tetracycline for three months; cited from earlier work
[8] = tested on: Burkholderia cepacia planktonic cells; test: Checkerboard, antibiotics with buffered CaEDTA; assay type: cell-based; conditions: FIGS. 15 and 16
Experimental: as §6

S. aureus MSSA = test: Ciprofloxacin with buffered CaEDTA against MSSA; assay type: cell-based, Staphylococcus aureus; conditions: FIG. 20
Experimental: as §6

[9] = tested on: Staphylococcus aureus MRSA; test: Antibiotics with buffered CaEDTA against MRSA; assay type: cell-based; conditions: FIG. 19 (vancomycin), FIG. 21 (ciprofloxacin)
Experimental: as §6

P. aeruginosa ATCC27853 = test: Time-kill assay, ceftazidime with or without buffered CaEDTA; assay type: cell-based, Pseudomonas aeruginosa; conditions: ceftazidime 128 ug/ml, buffered CaEDTA 20 mM
Experimental: This is likely a result of increased antibiotic killing. Challenge microorganisms were grown on solid agar and suspended in 0.9% Sodium Chloride (SCl) to create a challenge suspension. A 0.1 mL aliquot of the challenge suspension containing approximately 1×10^8 colony forming units was then inoculated into 10 mL Cation-Adjusted Mueller Hinton Broth (CaMHB) with the appropriate antibiotic or antibiotic with chelator, as indicated, and mixed thoroughly. The challenge suspension/antibiotic mixtures were then incubated at 35 degrees C. for the exposure time. At each timepoint, 0.1 mL aliquots were removed and placed into 9.9 mL of Butterfield's Phosphate Buffer with product neutralizers, mixed thoroughly by vortexing, and plated using the appropriate agar. Recovered colonies were enumerated using a hand-tally counter.

[10] = tested on: P. aeruginosa clinical strain; test: MIC of tobramycin for the clinical strain; assay type: cell-based; conditions: Pseudomonas aeruginosa; P. aeruginosa clinical strain used in the CF mucus model
[11] = 4 ug/ml tobramycin, 6.25 mM CaEDTA, aerobic and anaerobic, FIG. 5

## O=C(O)CN(CCOCCOCCN(CC(=O)O)CC(=O)O)CC(=O)O [EGTA, ethylene glycol tetraacetic acid]
[1]
  effect on the MIC of tobramycin: reduce the MIC

## CC1(C)S[C@@H]2[C@H](NC(=O)C(C(=O)O)c3ccccc3)C(=O)N2[C@H]1C(=O)O (stereo partly shown) [carbenicillin]
[2]
  sensitivity of P. aeruginosa to the antibiotic in the presence of buffered CaEDTA: increases the sensitivity

## O=C([O-])CN(CCN(CC(=O)[O-])CC(=O)[O-])CC(=O)[O-].[Ca+2].[Na+].[Na+] [CaEDTA]
[3]
  improvement in lung function (FEV1), average: 16 % points
[4]
  biofilm viability (BacLight LIVE/DEAD, confocal microscopy): some degree of killing
[4]; submicron particles of CaEDTA, tobramycin 325 μg/ml final in droplets, FIG. 24
  interaction with tobramycin on biofilms in CF mucus: act synergistically
[5]; [11]
  biofilm growth when CaEDTA is added to tobramycin: reduced
[5]; aerobic conditions, checkerboard, FIG. 2
  interaction with tobramycin, biofilm growth (CV staining): synergistic effect
[5]; aerobic, FIG. 2
  effect on the concentration of tobramycin required to block biofilm formation: lowers the concentration of tobramycin required
[5]; anaerobic conditions, checkerboard, FIG. 4
  interaction with tobramycin, biofilms: synergistic effect
[6]
  EDTA inside mucus plugs: up to 1.34 mM
P. aeruginosa WACC91; [11]
  planktonic growth when CaEDTA is added to tobramycin: reduced
P. aeruginosa WACC91; aerobic conditions, FIG. 1
  interaction with tobramycin, planktonic growth (OD600 nm): synergistic effect
P. aeruginosa WACC91; anaerobic conditions, FIG. 3
  interaction with tobramycin, planktonic growth (OD600 nm): synergistic effect
P. aeruginosa WACC91; planktonic cells, aerobic conditions, FIG. 1
  effect on the MIC of tobramycin: lowers the MIC
P. aeruginosa WACC91; with tobramycin, FIGS. 1B and 2B
  lowest effective concentration in vitro: 0.078 mM
P. aeruginosa biofilms; FIG. 6
  effect on efficacy of tobramycin against existing biofilms (metabolic activity): increases the efficacy
P. aeruginosa biofilms; solution or dry powder, FIG. 6B
  dependence of the synergistic effect on mode of delivery: does not depend on the mode of delivery
P. aeruginosa biofilms; submicron particles of CaEDTA, aerosolised, 96-well plates, FIG. 6
  interaction with tobramycin, metabolism of biofilms: synergistic effect
P. aeruginosa biofilms; tobramycin concentrations<1 mg/ml, FIG. 6A
  effect on killing of biofilms by tobramycin: substantially enhances killing

## colistin
[7]; FIG. 17A
  sensitivity of planktonic cells in the presence of buffered CaEDTA: sensitized
[7]; FIG. 17B
  sensitivity of biofilms in the presence of buffered CaEDTA: sensitized
[2]
  sensitivity of P. aeruginosa to the antibiotic in the presence of buffered CaEDTA: increases the sensitivity

## COc1cccc(OC)c1C(=O)N[C@@H]1C(=O)N2[C@@H]1SC(C)(C)[C@@H]2C(=O)O [methicillin]
[2]
  sensitivity of P. aeruginosa to the antibiotic in the presence of buffered CaEDTA: increases the sensitivity

## CC[C@H]1OC(=O)[C@H](C)[C@@H](O[C@H]2C[C@@](C)(OC)[C@@H](O)[C@H](C)O2)[C@H](C)[C@@H](O[C@@H]2O[C@H](C)C[C@H](N(C)C)[C@H]2O)[C@](C)(O)C[C@@H](C)C(=O)[C@H](C)[C@@H](O)[C@]1(C)O [erythromycin]
[2]
  sensitivity of P. aeruginosa to the antibiotic in the presence of buffered CaEDTA: increases the sensitivity

## sodium EDTA
P. aeruginosa
  lung function or infection status: no change in lung function or infection status

## C[C@H]1[C@H](NC(=O)/C(=N\OC(C)(C)C(=O)O)c2csc(N)n2)C(=O)N1S(=O)(=O)O [aztreonam]
[2]
  sensitivity of P. aeruginosa to the antibiotic in the presence of buffered CaEDTA: increases the sensitivity

## O=C(O)c1cn(C2CC2)c2cc(N3CCNCC3)c(F)cc2c1=O [ciprofloxacin]
[8]
  MIC of B. cepacia in the presence of buffered CaEDTA: lowered
S. aureus MSSA
  MIC in the presence of buffered CaEDTA: reduced MIC values
[9]
  MIC in the presence of buffered CaEDTA: reduced MIC values

## CN[C@H](CC(C)C)C(=O)N[C@H]1C(=O)N[C@@H](CC(N)=O)C(=O)N[C@H]2C(=O)N[C@H]3C(=O)N[C@H](C(=O)N[C@H](C(=O)O)c4cc(O)cc(O)c4-c4cc3ccc4O)[C@H](O)c3ccc(c(Cl)c3)Oc3cc2cc(c3O[C@@H]2O[C@H](CO)[C@@H](O)[C@H](O)[C@H]2O[C@H]2C[C@](C)(N)[C@H](O)[C@H](C)O2)Oc2ccc(cc2Cl)[C@H]1O [vancomycin]
[9]
  MIC in the presence of buffered CaEDTA: reduced MIC values

## CC(C)(O/N=C(\C(=O)N[C@@H]1C(=O)N2C(C(=O)[O-])=C(C[n+]3ccccc3)CS[C@H]12)c1csc(N)n1)C(=O)O [ceftazidime]
P. aeruginosa ATCC27853
  rate of killing in the presence of buffered CaEDTA: much more rapid

## NC[C@H]1O[C@H](O[C@H]2[C@H](O)[C@@H](O[C@H]3O[C@H](CO)[C@@H](O)[C@H](N)[C@H]3O)[C@H](N)C[C@@H]2N)[C@H](N)C[C@@H]1O [tobramycin]
[4]
  biofilm viability (BacLight LIVE/DEAD, confocal microscopy): little effect on viability
[5]; tobramycin alone, 4 ug/ml, FIG. 5
  biofilm formation at sub-MIC concentration: increase biofilm formation
[8]
  MIC of B. cepacia in the presence of buffered CaEDTA: lowered
[10]
  MIC: > 256 µg/mL

## O=C(O)CN(CCN(CC(=O)O)CC(=O)O)CCN(CC(=O)O)CC(=O)O [DTPA, diethylenetriaminepentaacetic acid]
[1]; FIG. 14
  interaction with tobramycin: synergy
[1]
  effect on the MIC of tobramycin: reduce the MIC
